Source: US20220387405A1, “METHODS OF TREATMENT WITH N-((R)-1-(3-CHLOROPYRIDIN-2-YL)-2,2,2-TRIFLUOROETHYL)-2-((S)-2,6-DIOXOPIPERIDIN-3-YL)-1-OXOISOINDOLINE-5-CARBOXAMIDE” (CELGENE CORPORATION, priority 2021, published 2022)
pIC50: −log10 of the molar value. Where two headings read alike, the source gives them in different places.

What was measured:
[1] = tested on: MV-4-11 AML xenograft model; experiment: Single dose PK/PD and efficacy studies, MV-4-11 AML xenograft model; type: in vivo, mice
Description: The CK1α degradation activity and subsequent antitumor activity of Compound 1 in vivo was tested in two TP53 WT AML cell line-derived xenograft models. The depth and duration of CK1α degradation was dose-dependent.
Based on single dose pharmacokinetic (PK)/pharmacodynamics (PD) and efficacy studies with the MV-4-11 AML xenograft model, nearly 90% degradation of CK1α at 2 hours post-dose and 50% suppression through 16 hours a day was maintained when the tumor Compound 1 concentration was >0.1 μM. Maintenance of >0.1 μM Compound 1 in tumor, and this degree of CK1α degradation with daily dosing at 3 mg/kg, led to a 73-99% reduction in tumor burden with significant survival benefit.

[2] = tested on: CD34+ cells from BM samples of healthy donors; experiment: Liquid culture of CD34+ cells from healthy donors (FACS); type: cell-based, human
Description: CD34^+ cells isolated from BM samples of 3 TP53 WT AML donors and 3 healthy donors were treated with increasing concentrations of Compound 1 in liquid culture at times ranging from 4 hours to 5 days. […] Acute myeloid leukemia blasts sustained CK1α degradation up to 5 days in culture as assessed by fluorescence-activated cell sorting (FACS) analysis. Strikingly, p53 stabilization was sustained longer in leukemic cells (up to 48 hours) compared with normal BM cells (for 24 hours).

[3] = tested on: human peripheral blood (PB) lymphocytes; experiment: In vitro mammalian cell micronucleus test
Description: Compound 1 was tested in the in vitro mammalian cell micronucleus test in human peripheral blood (PB) lymphocytes in the presence and absence of a metabolic activation system, Aroclor-induced rat liver fraction (S9), for 4 hours, and in the absence of S9 for 24 hours. The highest concentration tested was 481 μg/mL. Dimethyl sulfoxide (DMSO) was used as the solvent. […] In addition, 2 lower concentrations with appropriate concentration and cytotoxicity spacing were chosen for micronucleus scoring in each regime.

CYP2C19 = molecular target: T1, CYP2C19 (Homo sapiens, UniProt P33261); experiment: CYP inhibition in human liver microsomes, CYP2C19; type: in vitro ADME
T1 construct: In human liver microsomes; from tissue; host or cells: human liver microsomes
T1 sequence (P33261 whole entry): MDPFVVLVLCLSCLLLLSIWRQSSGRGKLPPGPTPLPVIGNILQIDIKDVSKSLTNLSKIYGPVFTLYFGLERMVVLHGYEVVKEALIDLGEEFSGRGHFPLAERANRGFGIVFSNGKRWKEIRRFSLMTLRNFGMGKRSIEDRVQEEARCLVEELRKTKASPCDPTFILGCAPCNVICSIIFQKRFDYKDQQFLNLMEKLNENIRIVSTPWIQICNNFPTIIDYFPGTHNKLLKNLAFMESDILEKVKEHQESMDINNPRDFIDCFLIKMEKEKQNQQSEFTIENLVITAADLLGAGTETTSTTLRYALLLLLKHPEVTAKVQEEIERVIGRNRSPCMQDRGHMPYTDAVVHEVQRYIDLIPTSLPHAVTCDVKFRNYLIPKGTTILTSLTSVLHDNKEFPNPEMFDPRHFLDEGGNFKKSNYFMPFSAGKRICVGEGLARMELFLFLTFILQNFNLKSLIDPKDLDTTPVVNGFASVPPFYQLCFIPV

[4] = tested on: Normal T lymphocytes in BM samples; experiment: PharmaFlow test, normal T lymphocytes in AML patient BM samples; type: cell-based, human; conditions: BM samples of AML patients; for Compound 1 all but 1 patient
[5] = Cardiovascular assessment (ECG, heart rate) in conscious cynomolgus monkeys; type: in vivo; conditions: oral gavage, 0.03-0.3 mg/kg, Regimens 1 and 2, 1 hour postdose
Description: Cardiovascular assessments (electrocardiograms [ECGs] and heart rates) were conducted in conscious cynomolgus monkeys as part of the Good Laboratory Practice (GLP)-compliant repeat dose toxicity study. In this study, Compound 1 was administered by oral gavage to Cynomolgus monkeys (5/sex/group) in Groups 1-5 at doses of 0 (0.5% (w/v) Methylcellulose, 0.25% (v/v) Tween 80 in 50 mM citrate buffer pH 3), 0.03, 0.1, 0.1 and 0.3 mg/kg, respectively, intermittently using 2 different dosing regimens. Groups 2 and 3 animals were dosed for 7 consecutive days in each 4-week cycle for 2 cycles (Regimen 1: on Days 1-7 and 29-35), whereas Groups 4 and 5 animals were dosed twice weekly for 4 weeks (Regimen 2: on Days 1, 4, 8, 11, 15, 18, 22 and 25). A combination of both dosing regimens (Days 1-7, 8, 11, 15, 18, 22, 25, and 29-35) was used for administration of the vehicle to the control animals. […] Qualitative (visual inspection) and quantitative assessments including heart rates and PR, QRS, RR, QT, and QTc intervals were performed. QTc was calculated using Bazett's formula.

[6] = GLP repeat-dose toxicity and toxicokinetics study in monkeys; type: in vivo, cynomolgus monkeys; conditions: for AUC / Cmax: plasma, po
Description: Cardiovascular assessments (electrocardiograms [ECGs] and heart rates) were conducted in conscious cynomolgus monkeys as part of the Good Laboratory Practice (GLP)-compliant repeat dose toxicity study. In this study, Compound 1 was administered by oral gavage to Cynomolgus monkeys (5/sex/group) in Groups 1-5 at doses of 0 (0.5% (w/v) Methylcellulose, 0.25% (v/v) Tween 80 in 50 mM citrate buffer pH 3), 0.03, 0.1, 0.1 and 0.3 mg/kg, respectively, intermittently using 2 different dosing regimens. Groups 2 and 3 animals were dosed for 7 consecutive days in each 4-week cycle for 2 cycles (Regimen 1: on Days 1-7 and 29-35), whereas Groups 4 and 5 animals were dosed twice weekly for 4 weeks (Regimen 2: on Days 1, 4, 8, 11, 15, 18, 22 and 25). A combination of both dosing regimens (Days 1-7, 8, 11, 15, 18, 22, 25, and 29-35) was used for administration of the vehicle to the control animals. A 9-lead ECG recording was made on all animal during pretest and on all animals in Groups 4 and 5 on Day 22 (1 hour postdose±15 minutes) and on all animals in Groups 1, 2 and 3 during Week 5 (1 hour postdose±15 minutes) using standard limb leads I, II and III; augmented leads aVR, aVL and aVF as well as chest leads MV1, MV2 and MV3. All ECGs were performed while the unanesthetized animal was sitting in an up-right position in a restraint chair. Qualitative (visual inspection) and quantitative assessments including heart rates and PR, QRS, RR, QT, and QTc intervals were performed. QTc was calculated using Bazett's formula.
In a repeat-dose toxicity study in monkeys, Compound 1 was administered by oral gavage intermittently using 2 different dosing regimens. Animals in Regimen 1 were dosed for 7 consecutive days in each 4-week cycle for 2 cycles (0.03 or 0.1 mg/kg on Days 1-7 and 29-35), whereas animals in Regimen 2 were dosed twice weekly for 4 weeks (0.1 or 0.3 mg/kg on Days 1, 4, 8, 11, 15, 18, 22 and 25).
End of dosing necropsy was performed on the day after the last dose administration. A 4-week recovery period was included to assess reversibility of findings. Administration of Compound 1 was associated with mortality at 0.1 mg/kg using Regimen 1 during the recovery phase. Three animals (2 males and 1 female) were euthanized for welfare reasons and one female was found dead due to reduction (marked to severe) in BM cellularity resulting in severe leukopenia and likely bacteremia, as well as in severe thrombocytopenia with disseminated petechial hemorrhage.

CYP3A4/5 = experiment: Enzymatic metabolism (enzyme identification); type: in vitro ADME
Source text: Compound 1 underwent non-enzymatic hydrolysis, oxidation, N-dealkylation, glucuronidation and a combination of these pathways in hepatocytes of human and animal species. Although there were quantitative differences in the formation of Compound 1 metabolites across species, qualitatively all metabolites formed in human hepatocytes were also observed in hepatocytes and plasma of rats and/or monkeys, the two species used for nonclinical safety testing. Following multiple oral administrations of Compound 1 to rats and monkeys, Compound 1 was the predominant component in plasma of both species. The metabolites observed in plasma were similar to those observed in hepatocytes.

CYP2C9 = molecular target: T2, CYP2C9 (Homo sapiens, UniProt P11712); experiment: CYP inhibition in human liver microsomes, CYP2C9; type: in vitro ADME
T2 construct: In human liver microsomes; from tissue; host or cells: human liver microsomes
T2 sequence (P11712 whole entry): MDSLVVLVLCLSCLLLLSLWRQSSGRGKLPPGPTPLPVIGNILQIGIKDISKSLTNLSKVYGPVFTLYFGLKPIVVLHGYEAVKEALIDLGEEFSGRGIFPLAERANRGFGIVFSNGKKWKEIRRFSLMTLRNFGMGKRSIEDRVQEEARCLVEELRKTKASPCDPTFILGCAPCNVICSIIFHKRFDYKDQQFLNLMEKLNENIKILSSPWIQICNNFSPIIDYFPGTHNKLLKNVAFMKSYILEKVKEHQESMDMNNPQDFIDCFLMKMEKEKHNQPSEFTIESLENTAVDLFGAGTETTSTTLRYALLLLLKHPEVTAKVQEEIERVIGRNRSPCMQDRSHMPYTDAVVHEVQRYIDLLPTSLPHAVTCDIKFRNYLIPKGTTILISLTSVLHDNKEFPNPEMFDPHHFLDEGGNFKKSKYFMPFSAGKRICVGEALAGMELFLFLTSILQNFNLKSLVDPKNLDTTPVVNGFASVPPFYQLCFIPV

[7] = both sexes, cynomolgus monkey, 0.03 mg/kg, Regimen 1, sexes combined
[8] = both sexes, cynomolgus monkey, 0.1 mg/kg, Regimen 2, sexes combined

O=C1CC[C@H](N2Cc3cc(C(=O)N[C@H](c4ncccc4Cl)C(F)(F)F)ccc3C2=O)C(=O)N1 [Compound 1, N-((R)-1-(3-chloropyridin-2-yl)-2,2,2-trifluoroethyl)-2-((S)-2,6-dioxopiperidin-3-yl)-1-oxoisoindoline-5-carboxamide]
degradation of CK1α ([1]; 2 hours post-dose, tumor concentration >0.1 μM): ~90% | CK1α degradation in AML xenograft tumors ([1]; AML xenograft tumors): significantly degraded | reduction in tumor burden ([1]; daily dosing at 3 mg/kg): 73-99% | suppression of CK1α ([1]; maintained through 16 hours a day, tumor concentration >0.1 μM): 50% | duration of sustained p53 stabilization ([2]; normal BM cells): 24 h | cellular outcome ([2]; normal cells): Cycle arrest | proportion of micronucleated binucleate cells (MBC) ([3]; 4 hours with and without S9, 24 hours without S9, compared with negative controls): did not cause any statistically significant increases | cytotoxicity based on CBPI ([3]; human, 24 h, 120 μg/mL): approximately 55% | time-dependent inhibition (CYP2C19; CYP2C19, 30-minute preincubation with NADPH): not a time-dependent inhibition | inhibitory effect (CYP2C19; human liver microsomes, CYP2C19): ≤ 25% | cytotoxicity in T lymphocytes [4]: noticeably more resistant | effects on heart rate, PR, QRS, QT, and QTc intervals [5]: no Compound 1 related effects | lethality ([6]; 0.1 mg/kg, Regimen 1, during the recovery phase): mortality | sex-combined mean maximum observed plasma concentration ([6]; 0.1 mg/kg/day, Regimen 1, Day 34): 31.9 ng/mL | fold higher than anticipated human Cmax of 0.4 ng/mL ([6]; 0.1 mg/kg/day, Regimen 1, Day 34 vs human starting dose 0.1 mg/day): approximately 80 fold | sex-combined mean maximum observed plasma concentration ([6]; 0.3 mg/kg/day, Regimen 2, Day 15): 62.6 ng/mL | fold higher than anticipated human Cmax of 0.4 ng/mL ([6]; 0.3 mg/kg/day, Regimen 2, Day 15 vs human starting dose 0.1 mg/day): ~157 fold | highest non-STD (HNSTD) ([6]; Regimen 1): 0.03 mg/kg | highest non-STD (HNSTD) ([6]; Regimen 2): 0.1 mg/kg | NOAEL ([6]; Regimen 2 (twice weekly for 4 weeks)): not identified | NOAEL ([6]; both sexes, cynomolgus monkey, in vivo, Regimen 1 (Days 1-7 and 29-35), oral gavage, read-out: NOAEL): 0.03 mg/kg | AUC [6, 7]: 51.4 ng·h/mL | Cmax [6, 7]: 9.95 ng/mL | AUC [6, 8]: 173 ng·h/mL | Cmax [6, 8]: 21.5 ng/mL | enzymatic metabolism (CYP3A4/5): primarily mediated by CYP3A4/5 | time-dependent inhibition (CYP2C9; CYP2C9, 30-minute preincubation with NADPH): not a time-dependent inhibition | pIC50 (CYP2C9; human liver microsomes, CYP2C9): < 4.52
